# Test results as given in patent US20010051630A1, “Use of hydroxylamine derivatives, and method and preparations for increasing the tolerance of field crops against weather stresses” (priority 1997, published 2001).
# Marks after values point to notes of the source that are not given here.
# Experiments:
# McCall soybeans [1] = test: CSVT with PVA-pearled McCall soybeans, relative length; format: in vivo, soybean; conditions: 2.5 mg in 1 ml 2.5% PVA per 100 seeds
# Description: (§1) In this experiment the tolerance of maize, soybean and pepper seeds treated with the active agent against cold was tested. This test imposed temperature and oxygen deficiency stresses on the seeds and was carried out according to Barla-Szabó and Dolinka CSVT (Complex Stressing Vigour Test). For a single test, two hundred seeds were soaked for 48 hours at 25° C. and another 48 hours at 5° C in 150 ml distilled water containing the active agent in 10 mg/l concentration. Following the 96 hours of soaking, the seeds were further germinated between rolled wet paper for 96 hours at 25° C. There were 25 seeds in each roll, the rolls were placed vertically into containers and covered with a plastic bag in order to reduce evaporation. During the whole procedure the seeds were kept in darkness.
# In a further CSVT experiment also using McCall soybeans, polyvinylalcohol (PVA) was applied for pearling the seeds. The 2.5 mg doses of the active agents were dissolved in 1 ml of 2.5% PVA solution, and this quantity was applied to 100 pieces of seeds. The improvement of the chilling tolerance is observed by the significant elongation of the germ and the roots.
# soybean cv. Bólyi 44 [2] = test: Drought tolerance of soybeans; format: in vivo; conditions: 6 days hardening; 50 mg/liter in the water; 4 days without watering, one week regeneration
# Description: Soybeans of soybean cv. Bólyi 44 were hardened for 6 days by withholding the water. This was followed by two days of watering, and the active agent was applied in the water. The concentration of the solution of the active agent was 50 mg/liter. After a 4-day-long cease of watering and a one week regeneration period, the number of surviving plants was recorded.
# Watering was ceased for 10 days for a certain group of plants in the experiment. It was observed that almost every plant perished. Each of the 4 surviving plants had previously been treated with the active agent.
# Mo 17 inbred maize line = test: CSVT (Complex Stressing Vigour Test), seeds soaked in active agent, Mo 17 maize; format: in vivo; conditions: seeds soaked in 10 mg/l active agent, * = significant vs control P < 0.05
# Description: as §1, with “darkness. At the end of the experiment the number of normally developing and ungerminated seeds were recorded. The length of the normal seedlings was measured and the average length of the five longest seedlings was calculated. Seedlings longer than 0.33 times the average length of the five longest seedlings were considered to be of high vigour, and low vigour seedlings were shorter than this length.” for “darkness.”
# bean cv. Seaway = test: Frost tolerance of beans; format: in vivo; conditions: −2° C. for 8 hours
# Description: Seedlings of bean cv. Seaway were cultivated under normal conditions for the first two weeks, then they were treated with 10 mg/liter and 100 mg/liter concentration solutions of the examined active agents 2 and 1 days before the initiation of the frost tolerance experiments. In the experiment, the plants were kept at −2° C. for 8 hours, then grew under normal conditions for I week, and the survival ratio was determined. 4 trays were used for each experiment and 6 seeds were planted in each tray.
# [3] = system: maize of high chilling tolerance (HT) population; test: CSVT, maize population of high chilling tolerance (HT); format: in vivo
# Description: as §1
# (§2) At the end of the experiment the number of normally developing and ungerminated seeds were recorded. The length of the normal seedlings was measured and the average length of the five longest seedlings was calculated. Seedlings longer than 0.33 times the average length of the five longest seedlings were considered to be of high vigour, and low vigour seedlings were shorter than this length.
# (§3) In the case of a further experiment with maize of low chilling tolerance (LT) and high chilling tolerance (HT) populations [Ref: P. Landi, E. Frascaroli, A. Lovato; EUPHYTICA 64 21-29 (1992)], the following positive effects were found (Table 3.).
# soybean cv. Bólyi 44 [4] = test: Field soybean cultivation, yield; format: in vivo
# Description: The experiment was performed using soybean cv. Bólyi 44. Before sowing, the seeds were treated with Rhyzobium Japonicum nitrogen-binding bacterium, which forms a root nodule providing 50-70% of the nitrogen demand of the plant.
# The examined compounds were applied by pearling the seeds; 1 ml of pearling agent containing 1 mg of active agent in a 5% aqueous PVA solution was used for 100 seeds.
# The plants were sown after soil preparation in the autumn, using a crop rotation system, 3-5 cm deep in the ground, with a 45-50 cm row distance, a 5 cm plant distance and 450,000-500,000 plant/ha density. The date of sowing was Apr. 15, 1997. During the development of the plant, the usual cultivation procedures were followed and the usual pesticides were used. The harvest took place in September-October, with the water content of the grains being between 16-18%.
# Seaway bean cultivar = test: Drought tolerance of beans, part a (5 days hardening); format: in vivo; conditions: 7 days without water, one week regeneration
# Description: Based on the experiences of our preliminary experiments, the plants were hardened before the application of the active agent by withholding the water for a few days, until the first signs of withering appeared. Then the plants were watered and the active agent was either dissolved in the water, or sprayed to the plants directly. Afterwards, the plants were subjected to different periods of drought according to the given experiment, watered again, and after a week-long regeneration period, the survival ratio was determined.
# a) Seaway bean cultivar was hardened for 5 days by withholding the water. Afterwards the plantlets were watered for two days normally. During this time, a 10 mg/liter and 100 mg/liter concentration solution of the active agent was applied two times a day dissolved in water or by direct spraying. Then the water was withheld for 7 days, and after a week-long regeneration period, the survival ratio was determined.
# [5] = system: maize of low chilling tolerance (LT) population; test: CSVT, maize population of low chilling tolerance (LT); format: in vivo
# Description: as §1, §2, §3
# McCall soybeans [6] = test: CSVT, McCall soybeans; format: in vivo, soybean
# Description: as §1, §2
# When applying the CSVT test, the following results were obtained (Table 4.).
# green peppers = test: CSVT, green peppers; format: in vivo, pepper
# Description: as §1, §2
# Under the circumstances of the CSVT test, they increased the length of the sprouts and the roots along with the proportion of the high vigour seedlings. […]
smiles,measurement,setting,value
"CC(C)(C)NCC(O)CONC(=O)c1cccc(C(F)(F)F)c1.Cl (stereo not drawn) [Compound 1, N-[2-hydroxy-3-(1,1-dimethylethyl-amino)propoxy]-3-trifluoromethyl-benzamide monohydrochloride]","Relative length (control = 100), germ",McCall soybeans [1],106
same,"Relative length (control = 100), root",McCall soybeans [1],128
same,Survival (%),soybean cv. Bólyi 44 [2],25* %
same,Ratio of high vigour plants (%),Mo 17 inbred maize line,29* %
same,Survival (%),"bean cv. Seaway; spraying, 100 mg/l",40* %
same,Survival (%),"bean cv. Seaway; watering, 10 mg/l",25* %
same,"Ratio of high vigour plants %, HT",[3],98* %
same,Weight of the crop (kg/m^2),soybean cv. Bólyi 44 [4]; seeds pearled with 1 mg active agent in 1 ml 5% PVA per 100 seeds,0.55 kg/m^2
same,Improvement compared to the control (%),soybean cv. Bólyi 44 [4]; weight of the crop,22.2%
same,"survival (%), Spraying (100 mg/l)",Seaway bean cultivar,71* %
same,"survival (%), Watering (10 mg/l)",Seaway bean cultivar,30* %
same,"survival (%), Watering (100 mg/l)",Seaway bean cultivar,41* %
same,"Ratio of high vigour plants %, LT",[5],94* %
same,Ratio of high vigour plants (%),McCall soybeans [6],43* %
same,Ratio of high vigour plants (%),green peppers,47* %
